Data set [1] is described as follows: CD spectroscopy of single components (helicity). Format: physicochemical. The conditions noted are these: 20 °C, 10 μM, 150 mM potassium phosphate, 150 mM KF, 5 mM TCEP, pH 7.4. The method, then: Figure 5 TBS winner peptide HingeW binds cJun preferentially over A-FosW. CD spectra (20 °C) show the binding of cJun to either (A) HingeW or (B) A-FosW. […] However, the effect is larger for HingeW, indicating a greater increase in peptide helicity. Similarly, the thermal denaturation of cJun bound to either (C) HingeW or (D) A-FosW is right-shifted from the average of the component peptide denaturation profiles. […] CD dimer exchange spectra show (E) an increase in helicity when HingeW is mixed with the A-FosW/cJun heterodimer as the HingeW exchanges with the A-FosW due to the binding preference of cJun for HingeW and (F) no shift from the average is observed when A-FosW is mixed with the HingeW/cJun heterodimer, indicating no change in dimer populations. Arrows are shown to highlight the shift from the average at 190 and 222 nm. In all experiments, the total sample peptide concentration was fixed to 10 μM, using equimolar concentrations of each component peptide to remove concentration-dependent effects. […]
(§1) µM) alongside ampicillin, kanamycin and chloramphenicol to maintain the required plasmids, and IPTG (1 mM) to induce protein expression. The library transformants were […]
increased to the optimum 4 µM in subsequent passages. […] This allows the occurrence of library members to be monitored as winner sequences are selected for. […]

The subject of data set [2] is cJun bZIP / TRE sites in TRE-mDHFR gene. Description: Transcription block survival (TBS) colony counting in E. coli. Format: cell-based, human cJun, expressed in E. coli. The method, then:
Figure 3 Transcription block survival (TBS) assay to derive functionally active cJun inhibitors. (A) Schematic illustrating the design and operation of TBS. (B) Controlled numbers of E. coli expressing the indicated proteins were plated on selective media and growth rates were calculated by counting colony-forming units. […] (2) A small effect on colony numbers is observed when cJun bZIP is additionally expressed. (3) TRE-mDHFR can replace the inhibited ecDHFR with colony count lower than for WT as expected. […] Although (6) cFos LZ and (7) FosW are known cJun-binders, they are unable to effectively dissociate the cJun bZIP from TRE DNA. However, (8) A-FosW and the TBS-derived hit (9) HingeW remove TRE-mDHFR transcriptional blocks to restore cell survival. Bar charts represent averages of three experimental repeats. Errors are shown as one standard deviation. Selected P values from a t-test are indicated (*P ≤ 0.05; **P ≤ 0.01; ****P ≤ 0.0001) with values for all possible comparisons within the bar chart reported in Figure S7. Serial dilutions were used to quantify colony numbers where required. Also shown are representative plate images and schematics to illustrate the effect upon TRE-mDHFR transcription. […]
Library Construction and TBS Assay: Library inserts were produced using PCR fill-in reactions from synthesised primers (Sigma) with degenerate codons at the desired positions to produce the correct residue options. The library was subcloned using SacI and AscI sites into the pET24a plasmid containing A-FosW. The primers used were cJun- […]
-3’ and cJun-Hinge-Lib_R: 5’-
-3’. The library DNA was transformed into NEB 10-beta electrocompetent E. coli cells. The following equation was utilised to determine library […]
coverage by the number of single colonies: where E is the percentage […] of the library missing, m is the number of colonies collected and n is the library size. This […]
covered. Library DNA quality was assessed by sequencing both the DNA pool and a number of single colonies to show degenerate codons in the correct positions in the pool and to show a diversity of library members from single colonies. The pool of library DNA was transformed into BL21 Gold cells already containing pES300d-TRE-mDHFR and […]
as §1
however a lower stringency is used initially before selection is increased in later steps.
Colonies from this first round of selection were pooled and serially grown in liquid culture at starting OD600 of 0.05 and grown at 37°C with shaking at 200 rpm until the OD600 […]
increased to the optimum 4 µM in subsequent passages. Bacteria containing the most effective functional antagonists were expected to produce higher levels of TRE-mDHFR which provides a growth advantage, and these will dominate the culture. At each passage step, a sample of the culture was plated on LB agar (supplemented with antibiotics to maintain plasmids) to select and sequence individual colonies, and a DNA pool was also sequenced. This allows the occurrence of library members to be monitored as winner sequences are selected for. Assay Validation experiments utilised a modified assay methodology whereby overnight cultures from glycerol stocks of the Control Strains (Figure S6) were diluted to OD600=0.5 and 50 µL was plated on a selective M9 minimal […]

For the substance “LEQRAEELARENEELEKEAEELEQELDELQAEIEQLEERNYALRKEIEDLQKQLEKL [A-FosW, N-terminal AS and C-terminal GAP caps, 6xHis-tagged]”, the “Fraction helicity of single component” value in data set [1] is given as 40.1%. For the same substance, in data set [2] (TRE-mDHFR + cJun bZIP + peptide, M9 + 4 μM TMP + 1 mM IPTG, average of three experimental repeats), the “colony numbers restored relative to TRE-mDHFR only” value is recorded as 60%.

For “cJun bZIP: human cJun bZIP domain, Arg252 to Leu308 (target protein)”, the “Fraction helicity of single component” value in data set [1] is 14.0%. Further, the “reduction in colony counts on expression of cJun bZIP with TRE-mDHFR” value in data set [2] (M9 minimal media + 4 μM TMP + 1 mM IPTG, TRE-mDHFR + cJun bZIP, P ≤ 0.0001, average of three experimental repeats) is given as 21 fold. Besides, in data set [2] (M9 minimal media + 4 μM TMP + 1 mM IPTG, WT-mDHFR + cJun bZIP vs WT-mDHFR, P ≤ 0.05, three experimental repeats), the “reduction in colony counts on expression of cJun bZIP without TRE sites (WT-mDHFR)” value turned out to be 1.3 fold.

The values above are taken from paper PMC9088798, “An Approach to Derive Functional Peptide Inhibitors of Transcription Factor Activity” (JACS Au, 2022).
